Columns and labels:
[1] = molecular target: human TREX2 (residues M44-A279) (Homo sapiens (Human), UniProt Q9BQ50); assay: TREX2 Biochemical Assay (fluorescence assay measuring degradation of dsDNA substrate); details: 2.5 nM TREX2, 60 nM dsDNA substrate, 25 minutes at room temperature
Protocol: Degradation of the dsDNA liberates free fluorophore to produce a fluorescent signal. Specifically, 7.5 μL of N-terminally His-Tev tagged human TREX2 (residues M44-A279, expressed in E. coli and purified in house) in reaction buffer (50 mM Tris (pH 7.4), 150 mM NaCl, 2 mM DTT, 0.1 mg/mL BSA, 0.01% (v/v) Tween-20 and 100 mM MgCl2) was added to a 384-well Black ProxiPlate Plus (Perkin Elmer) which already contained compound (150 nL) at varying concentrations as a 10 point dose-response in DMSO. To this was added 7.5 μL of dsDNA substrate (Strand A: 5′ TEX615/GCT AGG CAG 3′; Strand B: 5′ CTG CCT AGC/IAbRQSp (IDT)) in reaction buffer. Final concentrations were 2.5 nM TREX2, 60 nM dsDNA substrate in reaction buffer with 1.0% DMSO (v/v). After 25 minutes at room temperature, reactions were quenched by the addition of 5 μL of stop buffer (same as reaction buffer plus 200 mM EDTA). Final concentrations in the quenched reaction mixture were […] TREX2, 45 nM DNA and 50 mM EDTA in a volume of 20 μL. After a 5-minute incubation at room temperature, plates were read in a laser sourced Envision (Perkin-Elmer), measuring fluorescence at 615 nm following excitation w/570 nm light. IC50 values were calculated by comparing the measured fluorescence at 615 nm ratio relative to control wells pre-quenched w/stop buffer (100% inhibition) and no inhibitor (0% inhibition) controls as using non-linear least square four parameter fits and either Genedata or GraphPad Prism (GraphPad Software, Inc.).

full length human TREX1 = full length human TREX1 (Homo sapiens (Human), UniProt Q9NSU2); assay: TREX1 Biochemical Assay (fluorescence assay measuring degradation of dsDNA substrate); details: 150 pM TREX1, 60 nM dsDNA substrate, 25 minutes at room temperature
full length human TREX1, sequence (Q9NSU2 whole entry): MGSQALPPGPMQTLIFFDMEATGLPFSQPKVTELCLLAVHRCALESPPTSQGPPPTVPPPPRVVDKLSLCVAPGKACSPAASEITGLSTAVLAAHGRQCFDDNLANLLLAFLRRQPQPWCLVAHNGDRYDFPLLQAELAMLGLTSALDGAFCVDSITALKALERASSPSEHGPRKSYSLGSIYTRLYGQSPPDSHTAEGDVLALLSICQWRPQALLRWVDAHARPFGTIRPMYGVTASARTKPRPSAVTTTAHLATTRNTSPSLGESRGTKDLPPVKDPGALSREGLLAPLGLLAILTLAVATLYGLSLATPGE
Protocol: Degradation of the dsDNA liberates free fluorophore to produce a fluorescent signal. Specifically, 7.5 μL of N-terminally His-Tev tagged full length human TREX1 (expressed in E. coli and purified in house) in reaction buffer (50 mM Tris (pH 7.4), 150 mM NaCl, 2 mM DTT, 0.1 mg/mL BSA, 0.01% (v/v) Tween-20 and 100 mM MgCl2 were added to a 384-well Black ProxiPlate Plus (Perkin Elmer) which already contained compound (150 nL) at varying concentrations as a 10 point dose-response in DMSO. To this was added 7.5 μL of dsDNA substrate (Strand A: 5′ TEX615/GCT AGG CAG 3′; Strand B: 5′ CTG CCT AGC/IAbRQSp (Integrated DNA Technologies)) in reaction buffer. Final concentrations were 150 pM TREX1, 60 nM dsDNA substrate in reaction buffer with 1.0% DMSO (v/v). After 25 minutes at room temperature, reactions were quenched by the addition of 5 μL of stop buffer (same as reaction buffer plus 200 mM EDTA). Final concentrations in the quenched reaction were 112.5 pM TREX1, 45 nM DNA and 50 mM EDTA in a volume of 20 μL. After a 5-minute incubation at room temperature, plates were read in a laser sourced Envision (Perkin-Elmer), measuring fluorescence at 615 nm following excitation w/570 nm light. IC50 values were calculated by comparing the measured fluorescence at 615 nm ratio relative to control wells pre-quenched w/stop buffer (100% inhibition) and no inhibitor (0% inhibition) controls as using non-linear least square four parameter fits and either Genedata or GraphPad Prism (GraphPad Software, Inc.).

human TREX2 (residues M44-A279), sequence (Q9BQ50 whole entry, the tested form may be a part): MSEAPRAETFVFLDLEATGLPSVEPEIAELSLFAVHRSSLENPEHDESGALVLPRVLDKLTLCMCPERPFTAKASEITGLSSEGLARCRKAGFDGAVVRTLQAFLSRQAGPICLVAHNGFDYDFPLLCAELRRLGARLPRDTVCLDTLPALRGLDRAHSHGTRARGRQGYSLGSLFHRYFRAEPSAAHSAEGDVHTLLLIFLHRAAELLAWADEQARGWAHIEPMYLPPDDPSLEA

Cc1c(Br)cccc1-c1nc(C(=O)Nc2cnoc2)c(O)c(=O)n1C [Example 5, 2-(3-bromo-2-methylphenyl)-5-hydroxy-N-(isoxazol-4-yl)-1-methyl-6-oxo-1,6-dihydropyrimidine-4-carboxamide]
IC50 [1]: 1000 to 10000 nM
IC50 (full length human TREX1): < 100 nM

Cc1cc(-c2nc(C(=O)Nc3cnoc3)c(O)c(=O)n2C)cc(N2CCN(C)CC2)c1 [Example 33, 5-hydroxy-N-(isoxazol-4-yl)-1-methyl-2-(3-methyl-5-(4-methylpiperazin-1-yl)phenyl)-6-oxo-1,6-dihydropyrimidine-4-carboxamide]
IC50 [1]: 10000 to 100000 nM
IC50 (full length human TREX1): 100 to 1000 nM

Cn1c(C2CC2)nc(C(=O)Nc2cnoc2)c(O)c1=O [Example 3, 2-cyclopropyl-5-hydroxy-N-(isoxazol-4-yl)-1-methyl-6-oxo-1,6-dihydropyrimidine-4-carboxamide]
IC50 [1]: 10000 to 100000 nM
IC50 (full length human TREX1): 100 to 1000 nM

Cn1c(N2CCC[C@H](C(N)=O)C2)nc(C(=O)Nc2cnoc2)c(O)c1=O [Example 119, (S)-2-(3-carbamoylpiperidin-1-yl)-5-hydroxy-N-(isoxazol-4-yl)-1-methyl-6-oxo-1,6-dihydropyrimidine-4-carboxamide]
IC50 [1]: 10000 to 100000 nM
IC50 (full length human TREX1): 100 to 1000 nM

Cc1ccc(Br)cc1-c1nc(C(=O)Nc2cnoc2)c(O)c(=O)n1C [Example 4, 2-(5-bromo-2-methylphenyl)-5-hydroxy-N-(isoxazol-4-yl)-1-methyl-6-oxo-1,6-dihydropyrimidine-4-carboxamide]
IC50 [1]: 1000 to 10000 nM
IC50 (full length human TREX1): 100 to 1000 nM

Cn1c(C2CCCN(C(=O)CCc3ccccc3)C2)nc(C(=O)Nc2cnoc2)c(O)c1=O (centres unmarked) [Example 43, 5-hydroxy-N-(isoxazol-4-yl)-1-methyl-6-oxo-2-(1-(3-phenylpropanoyl)piperidin-3-yl)-1,6-dihydropyrimidine-4-carboxamide]
IC50 [1]: 1000 to 10000 nM
IC50 (full length human TREX1): < 100 nM

Cn1c(C2CCN2C(=O)OC(C)(C)C)nc(C(=O)Nc2cnoc2)c(O)c1=O (centres unmarked) [Example 22, tert-butyl 2-(5-hydroxy-4-(isoxazol-4-ylcarbamoyl)-1-methyl-6-oxo-1,6-dihydropyrimidin-2-yl)azetidine-1-carboxylate]
IC50 [1]: 10000 to 100000 nM
IC50 (full length human TREX1): 1000 to 10000 nM

Cn1c(C2(c3ccccc3)CC2)nc(C(=O)Nc2cnoc2)c(O)c1=O [Example 20, 5-hydroxy-N-(isoxazol-4-yl)-1-methyl-6-oxo-2-(1-phenylcyclopropyl)-1,6-dihydropyrimidine-4-carboxamide]
IC50 [1]: 10000 to 100000 nM
IC50 (full length human TREX1): 100 to 1000 nM

Cn1c(N2CCCC[C@@H]2CCO)nc(C(=O)Nc2cnoc2)c(O)c1=O [Example 107, (R)-5-hydroxy-2-(2-(2-hydroxyethyl)piperidin-1-yl)-N-(isoxazol-4-yl)-1-methyl-6-oxo-1,6-dihydropyrimidine-4-carboxamide]
IC50 [1]: 1000 to 10000 nM
IC50 (full length human TREX1): < 100 nM

Cn1c(N2CC[C@@H](C(N)=O)C2)nc(C(=O)Nc2cnoc2)c(O)c1=O [Example 118, (R)-2-(3-carbamoylpyrrolidin-1-yl)-5-hydroxy-N-(isoxazol-4-yl)-1-methyl-6-oxo-1,6-dihydropyrimidine-4-carboxamide]
IC50 [1]: 10000 to 100000 nM
IC50 (full length human TREX1): < 100 nM

Cn1nc(CCO)c(-c2nc(C(=O)Nc3cnoc3)c(O)c(=O)n2C)n1 [Example 73, 5-hydroxy-2-(5-(2-hydroxyethyl)-2-methyl-2H-1,2,3-triazol-4-yl)-N-(isoxazol-4-yl)-1-methyl-6-oxo-1,6-dihydropyrimidine-4-carboxamide]
IC50 [1]: 10000 to 100000 nM
IC50 (full length human TREX1): 100 to 1000 nM

C[C@H](Cc1ccccc1)c1nc(C(=O)Nc2cnoc2)c(O)c(=O)n1C [Example 79, (R)-5-hydroxy-N-(isoxazol-4-yl)-1-methyl-6-oxo-2-(1-phenylpropan-2-yl)-1,6-dihydropyrimidine-4-carboxamide]
IC50 [1]: 1000 to 10000 nM
IC50 (full length human TREX1): < 100 nM

Cn1c(N2CCC[C@H](c3ccccn3)C2)nc(C(=O)Nc2cnoc2)c(O)c1=O [Example 101, (S)-5-hydroxy-N-(isoxazol-4-yl)-1-methyl-6-oxo-2-(3-(pyridin-2-yl)piperidin-1-yl)-1,6-dihydropyrimidine-4-carboxamide]
IC50 [1]: 10000 to 100000 nM
IC50 (full length human TREX1): 100 to 1000 nM

From patent US12172990B2 (Constellation Pharmaceuticals, Inc., priority 2018, dated 2024)
